According to US20040063790A1, “Methods for inhibition of angiogenesis” (The Scripps Research Institute, priority 1996, published 2004):
Like-named read-outs stand apart in the source and are kept apart here. Blank lines part the entries; values can stand above or below the molecule they belong to. Where a SMILES comes first, the peptide text is derived from it. [ ]: non-standard residue; d: D form.

Assays:
[1] = system: bFGF-induced angiogenesis; experiment: CAM assay, growth factor-induced angiogenesis, intravenous application; assay type: in vivo, chick; details: for reducing the number of branch points of new blood vessels: FIG. 26, in decreasing order of inhibition 14, 10, 9, 12, compared to bFGF control and compound 7; for inhibition of formation of new blood vessels induced by bFGF: 250 μg/ml, 18 hours after bFGF treatment, FIG. 12; for anti-angiogenic properties (branch points): FIG. 27, 100 μg/embryo, compared to bFGF control and compound 16
Experimental: J. Pathol., 79:597 (1975). CAMs were prepared from chick embryos for subsequent induction of angiogenesis and inhibition thereof as described in Examples 4 and 5, respectively. Ten day old chick embryos were obtained from McIntyre Poultry (Lakeside, Calif.) and incubated at 37° C. with 60% humidity. A small hole was made through the shell at the end of the egg directly over the air sac with the use of a small crafts drill (Dremel, Division of Emerson Electric Co. Racine Wis.). A second hole was drilled on the broad side of the egg in a region devoid of embryonic blood vessels determined previously by candling the egg. […] A 1.0 centimeter (cm)×1.0 cm square window was cut through the shell over the dropped CAM with the use of a small model grinding wheel (Dremel). The small window allowed direct access to the underlying CAM.
Angiogenesis was induced by placing a 5 millimeter (mm)×5 mm Whatman filter disk (Whatman Filter paper No.1) saturated with Hanks Balanced Salt Solution (HBSS, GIBCO, Grand Island, N.Y.) or HBSS containing 150 nanograms/milliliter (ng/ml) recombinant basic fibroblast growth factor (bFGF) (Genzyme, Cambridge, Mass.) on the CAM of a 10-day chick embryo in a region devoid of blood vessels and the windows were latter sealed with tape. In other assays, 125 ng/ml bFGF was also effective at inducing blood vessel growth. For assays where inhibition of angiogenesis ws evaluated with intravenous injections of antagonists, angiogenesis was first induced with 1-2 μg/ml bFGF in fibroblast growth medium. Angiogenesis was monitored by photomicroscopy after 72 hours. CAMs were snap frozen, and 6 um cryostat sections were fixed with acetone and stained by immunofluorescence as described in Example 3C with 10 μg/ml of either anti-β1 monoclonal antibody CSAT or LM609.
For CAM preparations in which angiogenesis was induced with 1-2 μg/ml bFGF as previously described, synthetic peptides 69601 (control) and 66203 (SEQ ID NO: 5) were separately intravenously injected into CAM preparations 18 hours after bFGF induction of angiogenesis. The preparations were maintained for an additional 36-40 hours after which time the number of branch points were determined as previously described.
In other assays, peptide 85189 (SEQ ID NO: 15) was evaluated for inhibiting bFGF-induced angiogenesis in the CAM assay over a dosage range of 10 μg/embryo to 300 μg/embryo. The assay was performed as previously described.
In still further assays, peptide 85189 was compared to peptides 69601 and 66203 for anti-angiogenesis activity. The assay was performed as described above with the exception that 50 μg peptide were used.
The effectiveness of the different salt formulations of peptide 85189 was also evaluated in similar bFGF-induced CAM assays. The peptides were used at 100 μg/embryo. […] Untreated CAMs, labeled as “no cytokine” had approximately […] as many branch points as that seen with bFGF treatment, respectively 70 versus 190.
With the above-described protocol, the effect of MMP-2 fusion proteins, CTMMP-2(2-4), also referred to as CTMMP-2(445-467) and CTMMP-2(10-1), also referred to as CTMMP-2(274-637) was also evaluated. The assay was performed as previously described with the exception that 50 μg of fusion protein was administered to the bFGF-treated embryos. The effect of fusion protein treatment was assessed at 24 hours, 48 hours and 72 hours.
The 10 day old CAM preparation was used as previously described in Example 5A. Twenty-four hours after bFGF-induced angiogenesis was initiated, the organic peptidomimetics referred to as compounds 16 (81218), 17 (87292) and 18 (87293) were separately intravenously injected into the CAM preparation in a volume of 100 μl at a concentration of 1 mg/ml (100 μg/embryo) in 20% tetraglycol-PBS at pH 7.0. In parallel assays, compounds 7 (96112), 9 (99799), 10 (96229), 12 (112854) and 14 (96113) were similarly evaluated. […]

αIIbβ3 = target: T1, αIIbβ3 (Homo sapiens, UniProt P05106+P08514); experiment: Ligand-receptor binding assay, immobilized αIIbβ3
T1 construct: selected purified integrins were separately immobilized in Titertek microtiter wells
Source text: (§1) Herein described is a method of identifying antagonists in a ligand-receptor binding assay in which the receptor is immobilized to a solid support and the ligand and antagonist are soluble. Also described is a ligand-receptor binding assay in which the ligand is immobilized to a solid support and the receptor and antagonists are soluble.
(§2) Briefly, selected purified integrins were separately immobilized in Titertek microtiter wells at a coating concentration of 50 nanograms (ng) per well. The purification of the receptors used in the ligand-receptor binding assays are well known in the art and are readily obtainable with methods familiar to one of ordinary skill in the art. After incubation for 18 hours at 4° C., nonspecific binding sites on the plate were blocked with 10 milligrams/milliliter (mg/ml) of bovine serum albumin (BSA) in Tris-buffered saline. […] Radiolabeled ligands were used at concentrations of 1 nM and binding was challenged separately with unlabeled synthetic peptides.
(§3) Following a three hour incubation, free ligand was removed by washing and bound ligand was detected by gamma counting. […] The IC50 data in micromoles (IC50 μM) are expressed as the average of duplicate data points±the standard deviation as shown in Table 2.

αvβ3 = target: T2, αvβ3 (Homo sapiens, UniProt P05106+P06756); experiment: Ligand-receptor binding assay, immobilized αvβ3; details: for preference of inhibition of fibrinogen binding, αvβ3 versus αIIbβ3: comparison of half-maximal concentrations of Table 2
T2 construct: selected purified integrins were separately immobilized in Titertek microtiter wells
Source text: as §1, §2, §3

[2] = radiolabeled fibrinogen, average of duplicate data points ± standard deviation, read-out: αIIbβ3 (IC50 μM)
[3] = radiolabeled fibrinogen, average of duplicate data points ± standard deviation, read-out: αvβ3 (IC50 μM)

T2 sequence (P06756 31-889 limits assumed): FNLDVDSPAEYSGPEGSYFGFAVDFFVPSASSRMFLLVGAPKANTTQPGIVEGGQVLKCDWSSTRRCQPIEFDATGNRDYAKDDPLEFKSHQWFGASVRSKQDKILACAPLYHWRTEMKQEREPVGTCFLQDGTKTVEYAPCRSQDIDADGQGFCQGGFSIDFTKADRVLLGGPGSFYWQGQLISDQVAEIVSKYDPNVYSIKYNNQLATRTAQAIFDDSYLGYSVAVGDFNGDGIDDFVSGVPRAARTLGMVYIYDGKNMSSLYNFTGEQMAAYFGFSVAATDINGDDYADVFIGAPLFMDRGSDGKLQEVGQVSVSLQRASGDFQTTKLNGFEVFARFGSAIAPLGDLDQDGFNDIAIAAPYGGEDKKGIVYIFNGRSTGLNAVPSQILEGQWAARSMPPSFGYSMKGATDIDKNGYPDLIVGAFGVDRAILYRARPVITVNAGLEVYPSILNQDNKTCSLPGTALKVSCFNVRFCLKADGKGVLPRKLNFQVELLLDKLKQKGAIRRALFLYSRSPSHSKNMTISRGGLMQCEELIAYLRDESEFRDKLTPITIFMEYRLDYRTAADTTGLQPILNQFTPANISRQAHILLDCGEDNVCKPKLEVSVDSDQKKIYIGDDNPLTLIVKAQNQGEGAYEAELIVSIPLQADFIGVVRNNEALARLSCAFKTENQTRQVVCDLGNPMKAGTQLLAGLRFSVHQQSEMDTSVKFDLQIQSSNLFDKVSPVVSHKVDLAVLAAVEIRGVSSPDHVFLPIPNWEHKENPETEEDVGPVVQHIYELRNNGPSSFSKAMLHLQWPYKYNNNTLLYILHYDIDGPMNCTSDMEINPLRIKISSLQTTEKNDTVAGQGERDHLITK
T2 sequence (P06756 891-1048 partner limits assumed): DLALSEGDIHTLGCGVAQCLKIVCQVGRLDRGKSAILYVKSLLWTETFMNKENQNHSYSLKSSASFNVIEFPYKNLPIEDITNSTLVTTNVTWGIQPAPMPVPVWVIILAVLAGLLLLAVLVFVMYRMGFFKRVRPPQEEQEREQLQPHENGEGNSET
T2 sequence (P05106 27-788): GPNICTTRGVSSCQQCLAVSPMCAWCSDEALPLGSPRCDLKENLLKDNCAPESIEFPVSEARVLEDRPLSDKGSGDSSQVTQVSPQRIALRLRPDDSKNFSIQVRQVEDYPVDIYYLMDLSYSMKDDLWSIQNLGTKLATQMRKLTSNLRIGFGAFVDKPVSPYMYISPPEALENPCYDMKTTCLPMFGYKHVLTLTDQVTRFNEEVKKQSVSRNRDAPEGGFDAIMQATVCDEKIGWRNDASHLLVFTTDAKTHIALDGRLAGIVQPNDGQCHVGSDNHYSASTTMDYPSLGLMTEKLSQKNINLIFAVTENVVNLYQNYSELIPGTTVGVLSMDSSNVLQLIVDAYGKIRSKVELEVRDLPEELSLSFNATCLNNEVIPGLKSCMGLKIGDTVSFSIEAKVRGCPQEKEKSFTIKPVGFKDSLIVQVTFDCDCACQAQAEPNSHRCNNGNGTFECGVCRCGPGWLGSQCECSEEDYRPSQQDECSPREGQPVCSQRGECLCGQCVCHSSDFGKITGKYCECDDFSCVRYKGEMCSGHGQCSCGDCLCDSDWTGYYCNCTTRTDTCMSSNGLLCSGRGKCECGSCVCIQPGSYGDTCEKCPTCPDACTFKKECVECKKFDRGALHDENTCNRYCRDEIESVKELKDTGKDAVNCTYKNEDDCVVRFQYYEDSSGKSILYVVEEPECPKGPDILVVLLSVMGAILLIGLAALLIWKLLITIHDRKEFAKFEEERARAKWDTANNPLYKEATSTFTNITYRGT
T1 sequence (P08514 32-887 limits assumed): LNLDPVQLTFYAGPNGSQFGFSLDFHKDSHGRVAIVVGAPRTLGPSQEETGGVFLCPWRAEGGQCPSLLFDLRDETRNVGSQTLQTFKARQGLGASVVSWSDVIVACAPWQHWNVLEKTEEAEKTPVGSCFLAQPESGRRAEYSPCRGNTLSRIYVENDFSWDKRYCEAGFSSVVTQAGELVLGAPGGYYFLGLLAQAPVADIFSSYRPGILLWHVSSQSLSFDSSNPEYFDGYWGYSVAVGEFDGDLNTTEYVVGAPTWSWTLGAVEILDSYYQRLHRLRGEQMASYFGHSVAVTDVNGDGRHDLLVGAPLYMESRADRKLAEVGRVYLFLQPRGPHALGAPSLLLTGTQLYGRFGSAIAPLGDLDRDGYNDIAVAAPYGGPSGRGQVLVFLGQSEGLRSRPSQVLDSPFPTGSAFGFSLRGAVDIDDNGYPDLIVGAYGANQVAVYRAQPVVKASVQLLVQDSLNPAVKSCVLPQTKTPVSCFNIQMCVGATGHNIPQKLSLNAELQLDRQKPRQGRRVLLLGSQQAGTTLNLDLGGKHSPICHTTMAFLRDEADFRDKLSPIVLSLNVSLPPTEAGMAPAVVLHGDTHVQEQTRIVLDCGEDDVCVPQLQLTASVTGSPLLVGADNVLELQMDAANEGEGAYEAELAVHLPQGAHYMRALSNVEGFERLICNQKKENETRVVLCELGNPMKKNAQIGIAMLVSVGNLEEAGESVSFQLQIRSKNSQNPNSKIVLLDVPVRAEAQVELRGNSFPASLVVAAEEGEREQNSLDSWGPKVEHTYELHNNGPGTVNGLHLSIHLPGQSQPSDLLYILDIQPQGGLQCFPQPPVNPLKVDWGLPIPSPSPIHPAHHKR
T1 sequence (P08514 891-1039 partner limits assumed): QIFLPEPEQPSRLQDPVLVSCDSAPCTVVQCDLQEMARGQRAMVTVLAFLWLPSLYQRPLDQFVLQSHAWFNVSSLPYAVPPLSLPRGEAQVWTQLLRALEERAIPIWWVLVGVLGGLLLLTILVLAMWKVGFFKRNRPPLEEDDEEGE
T1 sequence (P05106 27-788): as the sequence (P05106 27-788) above

melting point: 165 °C (dec.)
SMILES: Cl.Cl.N=C(N)c1ccc(N2CC(COc3ccc(CC(N)C(=O)O)cc3)OC2=O)cc1 (centres unmarked)

melting point: 70 °C
SMILES: CCCCS(=O)(=O)N[C@@H](Cc1ccc(OCCCCNC(=N)N)cc1)C(=O)O [Compound 7]

SMILES: CC(C)(C)OC(=O)N[C@@H](Cc1ccc(OCCCCNC(=N)N)cc1)C(=O)O [Compound 9]
reducing the number of branch points of new blood vessels [1]: effective at reducing the number of branch points

melting point: 70 °C
SMILES: CCCCS(=O)(=O)N[C@H](Cc1ccc(OCCCCNC(=N)N)cc1)C(=O)O [Compound 10]
inhibition of formation of new blood vessels induced by bFGF [1]: almost completely inhibited
reducing the number of branch points of new blood vessels [1]: effective at reducing the number of branch points

SMILES: CC1(C)C2CCC1(CS(=O)(=O)N[C@@H](Cc1ccc(OCCCCNC(=N)N)cc1)C(=O)O)C(=O)C2 (some centres unmarked) [Compound 12]
reducing the number of branch points of new blood vessels [1]: effective at reducing the number of branch points

SMILES: CCCCS(=O)(=O)N[C@@H](Cc1ccc(OCCCCCNC(=N)N)cc1)C(=O)O [Compound 14]
inhibition of formation of new blood vessels induced by bFGF [1]: almost completely inhibited
reducing the number of branch points of new blood vessels [1]: effective at reducing the number of branch points

SMILES: CCCS(=O)(=O)NC(Cc1ccc(OCC2CN(c3ccc(C(=N)N)cc3)C(=O)O2)cc1)C(=O)O (centres unmarked) [Compound 17, 3-(4-amidinophenyl)-5-(4-(2-carboxy-2-N-propyl-sulfonylaminoethyl)phenoxy)methyl-2-oxazolidinone]
anti-angiogenic properties (branch points) [1]: exhibited anti-angiogenic properties

SMILES: CCS(=O)(=O)NC(Cc1ccc(OCC2CN(c3ccc(C(=N)N)cc3)C(=O)O2)cc1)C(=O)O (centres unmarked) [Compound 18, 3-(4-amidinophenyl)-5-(4-(2-carboxy-2-N-ethyl-sulfonylaminoethyl)phenoxy)methyl-2-oxazolidinone]
anti-angiogenic properties (branch points) [1]: exhibited anti-angiogenic properties

IC50 (αIIbβ3; [2]): 0.63 ± 0.18 µM
IC50 (αvβ3; [3]): 1.05 ± 0.07 µM
SMILES: CC(C)C[C@@H]1NC(=O)[C@@H](Cc2ccccc2)NC(=O)[C@H](CC(=O)O)NC(=O)CNC(=O)[C@H](CCCNC(=N)N)NC(=O)[C@H](C)NC1=O [Peptide 62175, cyclo (ARGDfL)] (cyclo(ARGD[dF]L))
preference of inhibition of fibrinogen binding, αvβ3 versus αIIbβ3 (αvβ3): either not as effective in blocking fibrinogen binding to αvβ3 or exhibited preferential inhibition of fibrinogen binding to αIIbβ3

IC50 (αIIbβ3; [2]): 0.055 ± 0.007 µM
IC50 (αvβ3; [3]): 0.395 ± 0.21 µM
SMILES: CC(C)C[C@@H]1NC(=O)[C@@H](Cc2ccccc2)NC(=O)[C@H](CC(=O)O)NC(=O)CNC(=O)[C@H](CCCNC(=N)N)NC(=O)CNC1=O [Peptide 62179, cyclo (GRGDfL)] (cyclo(GRGD[dF]L))
preference of inhibition of fibrinogen binding, αvβ3 versus αIIbβ3 (αvβ3): either not as effective in blocking fibrinogen binding to αvβ3 or exhibited preferential inhibition of fibrinogen binding to αIIbβ3

IC50 (αIIbβ3; [2]): 15 ± 7.84 µM
IC50 (αvβ3; [3]): 1.96 ± 0.62 µM
SMILES: CC(C)[C@@H]1NC(=O)[C@H](Cc2ccccc2)NC(=O)[C@H](CC(=O)O)NC(=O)CNC(=O)[C@@H](CCCNC(=N)N)NC(=O)CNC1=O [Peptide 62181, cyclo (GrGDFV)] (cyclo(G[dR]GDFV))
preference of inhibition of fibrinogen binding, αvβ3 versus αIIbβ3 (αvβ3): preferential inhibition of fibrinogen binding to the αvβ3 receptor

IC50 (αIIbβ3; [2]): 100 ± 0.001 µM
IC50 (αvβ3; [3]): 0.885 ± 0.16 µM
SMILES: CC(C)[C@@H]1NC(=O)[C@@H](Cc2ccccc2)NC(=O)[C@H](CC(=O)O)NC(=O)[C@H](C)NC(=O)[C@H](CCCN=C(N)N)NC1=O [Peptide 62185, cyclo (RADfV)] (cyclo(AD[dF]VR))

SMILES: CC(C)[C@@H]1NC(=O)[C@@H](Cc2ccccc2)NC(=O)[C@H](CC(=O)O)NC(=O)[C@H](C)NC(=O)[C@H](CCCNC(=N)N)NC1=O [Peptide 62185, cyclo (RADfV)] (cyclo(RAD[dF]V))
preference of inhibition of fibrinogen binding, αvβ3 versus αIIbβ3 (αvβ3): preferential inhibition of fibrinogen binding to the αvβ3 receptor

SMILES: CSCC[C@H](NC(=O)[C@@H]1CCCN1C(=O)[C@H](CC(N)=O)NC(=O)CNC(=O)[C@H](CC(C)C)NC(=O)[C@H](CC(=O)O)NC(=O)[C@H](CS)NC(=O)[C@@H](NC(=O)[C@@H](NC(=O)[C@H](CCC(N)=O)NC(=O)[C@H](CCCNC(=N)N)NC(=O)[C@@H](N)[C@@H](C)O)C(C)C)C(C)C)C(=O)O [Peptide 62411] (H-TRQVVCDLGNPM-OH)
IC50 (αIIbβ3): > 100 µM
IC50 (αIIbβ3; read-out: αIIbβ3 IC50 (μM) VN, vitronectin, individual assay): > 100 µM
IC50 (αvβ3): > 100 µM

IC50 (αIIbβ3; fibrinogen, individual assay, read-out: αIIbβ3 IC50 (μM) FG): > 100 µM
IC50 (αIIbβ3; vitronectin, individual assay, read-out: αIIbβ3 IC50 (μM) VN): > 100 µM
IC50 (αvβ3; fibrinogen, individual assay, read-out: αvβ3 IC50 (μM) FG): > 100 µM
SMILES: CC(C)C[C@H](NC(=O)[C@H](C)NC(=O)[C@H](CCC(=O)O)NC(=O)[C@H](CC(N)=O)NC(=O)[C@H](CC(N)=O)NC(=O)[C@H](CCCNC(=N)N)NC(=O)[C@@H](NC(=O)[C@@H](NC(=O)CN)C(C)C)C(C)C)C(=O)N[C@@H](C)C(=O)N[C@@H](CCCNC(=N)N)C(=O)N[C@@H](CC(C)C)C(=O)N[C@@H](CO)C(=O)O [Peptide 62503] (H-GVVRNNEALARLS-OH)
